{"source": "ChEMBL document CHEMBL2434821", "about": "“New phenstatin-fatty acid conjugates: synthesis and evaluation” (Bioorg Med Chem Lett, 2013)", "assay": "Cytotoxicity against human KB-3-1 cells assessed as cell survival at 0.5 uM after 72 hrs by MTT assay relative to control", "settings": "KB 3-1, 72 h", "data": [{"compound": "CCCCC/C=C\\C/C=C\\CCCCCCCC(=O)Oc1cc(C(=O)c2cc(OC)c(OC)c(OC)c2)ccc1OC", "values": [{"measurement": "cell survival at 0.5 µM", "value": 20, "unit": "%"}]}]}
